Test results reported in patent US9113629B2, “4-amino-6-(4-substituted-phenyl)-picolinates and 6-amino-2-(4-substituted-phenyl)-pyrimidine-4-carboxylates and their use as herbicides” (DOW AGROSCIENCES LLC, priority 2013, dated 2015).
Like-named read-outs stand apart in the source and are kept apart here.

Tests used:
[1] = system: Key Broadleaf Weed and Crop Species; assay: Post-emergent Test II herbicidal activity (Table 5); type: in vivo; details: post-emergence, 336 h, post-emergent, 14 days after application; for pest or weed control at 70 g/ha: application rate 70 g ai/ha; for pest or weed control at 140 g/ha: application rate 140 g ai/ha
Outline: (§1)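 Visual injury ratings (0 = no injury, 100 = complete kill) were taken 14 d after treatment, relative to untreated plants. Seedlings at the first–second true leaf stage received overhead spray at 187 L/ha; the highest rate was serially diluted to ½×, ¼×, ⅛× and 1/16×.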

[2] = system: Key Grass and Sedge Weeds as well as Grass Crops; assay: Post-emergent Test II herbicidal activity (Table 6); type: in vivo; details: post-emergence, 336 h; for pest or weed control at 70 g/ha: application rate 70 g ai/ha; for pest or weed control at 140 g/ha: application rate 140 g ai/ha
Outline: as §1

[3] = ABUTH: velvetleaf (Abutilon theophrasti), read-out: Visual Growth Reduction (%) 14 Days After Application, ABUTH
[4] = AMARE: redroot pigweed (Amaranthus retroflexus), read-out: Visual Growth Reduction (%) 14 Days After Application, AMARE
[5] = BRSNN: oilseed-rape, canola (Brassica napus), read-out: Visual Growth Reduction (%) 14 Days After Application, BRSNN
[6] = CHEAL: lambsquarters (Chenopodium album), read-out: Visual Growth Reduction (%) 14 Days After Application, CHEAL
[7] = EPHHL: wild poinsettia (Euphorbia heterophylla), read-out: Visual Growth Reduction (%) 14 Days After Application, EPHHL
[8] = HELAN: sunflower (Helianthus annuus), read-out: Visual Growth Reduction (%) 14 Days After Application, HELAN
[9] = VIOTR: wild pansy (Viola tricolor), read-out: Visual Growth Reduction (%) 14 Days After Application, VIOTR
[10] = CYPES: yellow nutsedge (Cyperus esculentus), read-out: Visual Growth Reduction (%) 14 Days After Application, CYPES
[11] = DIGSA: crabgrass (Digitaria sanguinalis), read-out: Visual Growth Reduction (%) 14 Days After Application, DIGSA
[12] = ECHCG: barnyardgrass (Echinochloa crus-galli), read-out: Visual Growth Reduction (%) 14 Days After Application, ECHCG
[13] = ORYSA: rice (Oryza sativa), read-out: Visual Growth Reduction (%) 14 Days After Application, ORYSA
[14] = SETFA: giant foxtail (Setaria faberi), read-out: Visual Growth Reduction (%) 14 Days After Application, SETFA
[15] = SORVU: grain sorghum (Sorghum vulgare), read-out: Visual Growth Reduction (%) 14 Days After Application, SORVU
[16] = TRZSS (wheat, Triticum aestivum), read-out: Visual Growth Reduction (%) 14 Days After Application, TRZSS
[17] = ZEAMX: maize, corn (Zea mays), read-out: Visual Growth Reduction (%) 14 Days After Application, ZEAMX

| SMILES | pest or weed control at 70 g/ha [1, 3] [%] | pest or weed control at 140 g/ha [1, 3] [%] | pest or weed control at 70 g/ha [1, 4] [%] | pest or weed control at 140 g/ha [1, 4] [%] | pest or weed control at 70 g/ha [1, 5] [%] | pest or weed control at 140 g/ha [1, 5] [%] | pest or weed control at 70 g/ha [1, 6] [%] | pest or weed control at 140 g/ha [1, 6] [%] | pest or weed control at 70 g/ha [1, 7] [%] | pest or weed control at 140 g/ha [1, 7] [%] | pest or weed control at 70 g/ha [1, 8] [%] | pest or weed control at 140 g/ha [1, 8] [%] | pest or weed control at 70 g/ha [1, 9] [%] | pest or weed control at 140 g/ha [1, 9] [%] | pest or weed control at 70 g/ha [2, 10] [%] | pest or weed control at 140 g/ha [2, 10] [%] | pest or weed control at 70 g/ha [2, 11] [%] | pest or weed control at 140 g/ha [2, 11] [%] | pest or weed control at 70 g/ha [2, 12] [%] | pest or weed control at 140 g/ha [2, 12] [%] | further results |
| --- | --- | --- | --- | --- | --- | --- | --- | --- | --- | --- | --- | --- | --- | --- | --- | --- | --- | --- | --- | --- | --- |
| Nc1c(F)c(-c2cc(F)c(OC(F)F)cc2F)nc(C(=O)O)c1Cl [Compound 195] | 0 to 29 | 0 to 29 | 0 to 29 | 45 to 59 | 45 to 59 | 60 to 74 | 45 to 59 | 75 to 84 | 30 to 44 | 30 to 44 | 60 to 74 | 85 to 94 | 0 to 29 | 0 to 29 | 0 to 29 | 0 to 29 | 0 to 29 | 0 to 29 | 0 to 29 | 0 to 29 | pest or weed control at 70 g/ha [2, 13]: 0 to 29%; pest or weed control at 140 g/ha [2, 13]: 0 to 29%; pest or weed control at 70 g/ha [2, 14]: 0 to 29%; pest or weed control at 140 g/ha [2, 14]: 0 to 29%; pest or weed control at 70 g/ha [2, 15]: 0 to 29%; pest or weed control at 140 g/ha [2, 15]: 0 to 29%; pest or weed control at 70 g/ha [2, 16]: 0 to 29%; pest or weed control at 140 g/ha [2, 16]: 0 to 29%; pest or weed control at 70 g/ha [2, 17]: 0 to 29%; pest or weed control at 140 g/ha [2, 17]: 0 to 29%; melting point: 162 to 165 °C |
| COc1c(N)nc(-c2cc(F)c(C)cc2F)nc1C(=O)O [Compound 201] | 30 to 44 | 60 to 74 | 30 to 44 | 60 to 74 | 95 to 100 | 95 to 100 | 85 to 94 | 75 to 84 | 45 to 59 | 85 to 94 | 60 to 74 | 75 to 84 | 0 to 29 | 0 to 29 | 0 to 29 | 0 to 29 | 0 to 29 | 0 to 29 | 60 to 74 | 45 to 59 | pest or weed control at 70 g/ha [2, 13]: 0 to 29%; pest or weed control at 140 g/ha [2, 13]: 0 to 29%; pest or weed control at 70 g/ha [2, 14]: 0 to 29%; pest or weed control at 140 g/ha [2, 14]: 30 to 44%; pest or weed control at 70 g/ha [2, 15]: 0 to 29%; pest or weed control at 140 g/ha [2, 15]: 45 to 59%; pest or weed control at 70 g/ha [2, 16]: 0 to 29%; pest or weed control at 140 g/ha [2, 16]: 0 to 29%; pest or weed control at 70 g/ha [2, 17]: 0 to 29%; pest or weed control at 140 g/ha [2, 17]: 0 to 29%; melting point: 135.9 to 137.7 °C |
| COc1c(N)nc(-c2cc(F)c(C(F)F)cc2F)nc1C(=O)O [Compound 203] | 30 to 44 | 30 to 44 | 45 to 59 | 95 to 100 | 30 to 44 | 45 to 59 | 85 to 94 | 95 to 100 | 95 to 100 | 95 to 100 | 60 to 74 | 75 to 84 | 0 to 29 | 30 to 44 | 0 to 29 | 75 to 84 | 0 to 29 | 0 to 29 | 0 to 29 | 0 to 29 | pest or weed control at 70 g/ha [2, 13]: 0 to 29%; pest or weed control at 140 g/ha [2, 13]: 0 to 29%; pest or weed control at 70 g/ha [2, 14]: 0 to 29%; pest or weed control at 140 g/ha [2, 14]: 75 to 84%; pest or weed control at 70 g/ha [2, 15]: 0 to 29%; pest or weed control at 140 g/ha [2, 15]: 0 to 29%; pest or weed control at 70 g/ha [2, 16]: 0 to 29%; pest or weed control at 140 g/ha [2, 16]: 0 to 29%; pest or weed control at 70 g/ha [2, 17]: 0 to 29%; pest or weed control at 140 g/ha [2, 17]: 0 to 29%; melting point: 143.7 to 145.5 °C |
